# US6958359B1, “Vanadium compounds as anti-angiogenic agents” (Parker Hughes Institute, priority 2000, dated 2005)
# pIC50: −log10 of the molar value.
# Legend:
# [1] = test system: CAMs of growing chick embryos; experiment: Chick embryo chorioallantoic membrane (CAM) assay, inhibition of angiogenesis; format: in vivo, chick (white Leghorn chicken); details: for Avascular Zone: assessed 48 hours after implantation
# Procedure: Inhibition of embryonic angiogenesis was determined using a bioassay system involving CAMs of growing chick embryos, as previously described (Nguyen et al, Microvascular Research, 47:31, 1994; Auerbach et al, Developmental Biology, 41:391, 1974). Fertilized white Leghorn chicken eggs were received at day 3 of incubation from the University of Minnesota Poultry Research Center, St. Paul, Minn. The following procedures took place in a sterile laminar flow hood. The eggs were wiped down with 70% isoprpyl alcohol and allowed to air dry. The eggs were wiped with Betadine and placed in a horizontal position for approximately 5 minutes and allowed to dry. The eggs were cracked and placed into sterile 100×20 mm^2 Petri dishes (Fischer, Itasca, Ill.) and transferred to a 37° C. humidified incubator (1.5% CO2). […] Louis, Mo.) were prepared by pipetting 10 μl of the compound, using a positive displacement pipette, onto sterile Teflon™ PFA Petri dishes (VWR, Chicago, Ill.) and drying in a vacuum desiccator at ambient temperature. […] The eggs were returned to a humidified 1.5% CO2/37° C. incubator.
# Inhibition of angiogenesis was assessed 48 hours after implantation by measuring the avascular one in the CAM beneath the pellet, followed by photographic documentation of the CAM. Pellets containing 200 μg suramin (Calbiochem, La Jolla, Calif.) served as a positive control. The methylcellulose disk alone with no added compounds served as a negative control. Significant inhibition of angiogenesis was defined as the presence of an avascular zone of at least 3 mm in diameter around the methylcellulose disk.
# Zebra fish embryos = experiment: Zebrafish embryo model system, incubation of dechorionated two-cell stage embryos with drug; format: in vivo, Danio rerio
# Procedure: ZF eggs were removed from their chorions by mild digestion in 1% Trypsin-EDTA (Sigma, St.Louis, Mo.) for 10 minutes at 28.5° C. (Standard temperature—ST), washed three times in “egg water” and twice in “embryonic medium” (EM), according to recommendations (Westerfield, The Zebrafish Book, Supra). The dechorionated two-cell stage cleaving eggs were transferred to the 24-well plastic cell culture plates (Costar, Cambridge, Mass.) filled with EM. Dechorionated embryos (10-12 per well) were exposed to the drugs at a constant ST for 0.5-24 hours. The final volume of the media in each well was 500 μL. The compound was tested at concentrations ranging from 10 μM to 4 mM. First dissolved in DMSO, it was then diluted serially with the incubation medium. The final concentration of DMSO in the wells was 1.2%. […]
# (§1) Observations of cell division and development of the ZF embryos were carried out using a SMZ-10A stereo microscope (Nicon, Melville, N.Y.), once every 30 minutes within the first 3 hours of incubation and at 6, 12 and 24 hours, as well. […] The absorbance of each well was measured in a microplate reader (Labsystems) at 540 nm and a reference wavelength of 690 nm. The percent survival and the IC50 values were calculated using Graphpad Prism software version 2.0 (Graphpad Software, Inc., San Diego, Calif.), as described previously. […]
# two-cell stage ZF eggs = experiment: Zebrafish embryo microinjection into cytoplasm of two-cell stage eggs; format: in vivo, Danio rerio
# Procedure: Microinjections were performed with the help of a SMZ-10A stereo microscope (Nicon, Melville, N.Y.) and transjector 5246 (Eppendorf Scientific Inc, Westbury, N.Y. 11590) at RT. The eggs in chorions were restrained in agar grooves filled with EM, and the drug containing solution was introduced into the cytoplasm of one of the blastomeres of the two-cell stage eggs through a micropipette with a splinted sharp tip of 2-3 μm in diameter. All microinjections were performed under visual control. Drugs for injection were dissolved in Hank's Balanced Salt Saline (Gibco, Rockville, Md.) with 10% DMSO. The volume of the solution injected into each blastomere was approximately […]. For every drug, 40-50 embryos were injected in 30 minutes of one series of experiment. After the treatment the embryos were transferred back to ST and studied as above.
# as §1
# [2] = test system: breast cancer cell line BT-20; experiment: MTT cytotoxicity assay; format: cell-based, human; details: BT-20, MTT, 48 hours; read-out: IC50 inhibition of proliferation
# Procedure: (§2) Observations of cell division and development of the ZF embryos were carried out using a SMZ-10A stereo microscope (Nicon, Melville, N.Y.), once every 30 minutes within the first 3 hours of incubation and at 6, 12 and 24 hours, as well. […] The stereo microscope was fitted with a specially designed transparent heating tray in order to keep embryos at ST during observations. Pictures of the embryos were taken with a H-III Photomicrographic System (Nicon, Melville, N.Y.) using Ektachrome 64X film (Kodak, Rochester, N.Y.). Cytotoxicity MTF Assays The cytotoxicity of [VCp2(acac)](CF3SO3) against human cancer cell lines was performed as described previously (Ghosh et al, Clinc Canc Res, 6:1536, 2000) using the MTT (3-[4,5-dimethylthiazol-2-yl]-2,5-diphenyl tetrazolium bromide) assay (Boehringer Mannheim Corp., Indianapolis, Ind.). Briefly, exponentially growing tumor cells were seeded into a 96-well plate at a density of 2.5×10^4 cells/well and incubated [VCp2(acac)](CF3SO3) or 0.1% DMSO in PBS concentrations ranging from 0.1 to 250 μM. Following incubation with drug for 48 hours at 37° C., to each well, 10 μl of MTT (0.5 mg/ml final concentration) was added and the plates were incubated at 37° C. for 4 hours to allow MTT to form formazan crystals by reacting with metabolically active cells. The formazan crystals were solubilized overnight at 37° C. in a solution containing 10% SDS in 0.01 M HCl. The absorbance of each well was measured in a microplate reader (Labsystems) at 540 nm and a reference wavelength of 690 nm. The percent survival and the IC50 values were calculated using Graphpad Prism software version 2.0 (Graphpad Software, Inc., San Diego, Calif.), as described previously. Ghosh et al, Clinc Canc Res, 6:1536, 2000.
# [3] = test system: breast cancer cell line MDA-MB-231; experiment: MTT cytotoxicity assay; format: cell-based, human; details: MDA-MB-231, MTT, 48 hours; read-out: IC50 inhibition of proliferation
# Procedure: as §2
# [4] = test system: glioblastoma cell line U373; experiment: MTT cytotoxicity assay; format: cell-based, human; details: 48 hours, read-out: IC50 inhibition of proliferation
# Procedure: as §2
# [5] = test system: BT-20 breast cancer cells; experiment: Immunocytochemistry and confocal microscopic analysis of mitotic spindles; format: cell-based, human; details: BT-20 cells, α-tubulin and DNA staining, confocal laser scanning microscopy
# Procedure: At the appropriate time points coverslips containing BT-20 cells were fixed in−20° C. methanol for 15 minutes followed by 15 minutes incubation in phosphate buffered saline +0.1% Triton X-100 (PBS-Tx). Coverslips were next incubated with a primary antibody recognizing α-tubulin (Sigma, St.Louis Mo.) for 40 minutes in a humidified chamber at 37° C. Coverslips were washed for 15 minutes in PBS-Tx followed by a 40 minutes incubation with a fluorescently labeled secondary antibody (Jackson Immunoresearch, West Grove, Pa.). The coverslips were again rinsed in PBS-Tx and incubated with 5 μM Toto-3 (Molecular Probes, Eugene Oreg.) for 20 minutes to label the DNA. Coverslips were immediately inverted onto slides in Vectashield (Vector Labs, Burlingame, […].) to prevent photobleaching, sealed with nail polish and stored at 4° C.
# Slides were examined using a Bio-Rad MRC-1024 Laser Scanning Confocal Microscope mounted on a Nikon Eclipse E800 upright microscope with high numerical aperture objectives. Slides were examined to determine the percentage of cells in interphase vs. mitosis and representative images were taken. Digital data was processed using Lasersharp (Bio-Rad, Hercules, Calif.) and Photoshop (Adobe Systems, Mountain View, Calif.) software and printed on a Pictrography printer (Fuji Photo Elmsford, N.Y.)
smiles,measurement,setting,value
"CC(=O)C=C(C)[O-].O=S(=O)([O-])C(F)(F)F.[V+4].c1cc[cH-]c1.c1cc[cH-]c1 [VDacac, Vanadocene acetylacetonato monotriflate]",Avascular Zone,[1]; VDacac 1 (mg) pellet on CAM,7.0 ± 1.5 mm^2
same,Avascular Zone,[1]; VDacac 10 (mg) pellet on CAM,38.4 ± 16.6 mm^2
same,Avascular Zone,[1]; VDacac 100 (mg) pellet on CAM,92.4 ± 24.9 mm^2
same,effect on angiogenesis in CAM,"[1]; methylcellulose disks, doses ranging from 1 μg to 100 μg, 4-6 day old chick embryos",rapidly inhibited angiogenesis and produced within one hour a large avascular zone
same,effect on cell division / embryonic development,"Zebra fish embryos; 0.6 mM in embryonic medium, 28.5° C.",cell division block at the 8-16 cell stage of embryonic development followed by total cell fusion and developmental arrest
same,effect on cell division / embryonic development,"Zebra fish embryos; concentrations lower than 0.6 mM, within 120 minutes of incubation",cell proliferation continued but was abnormal
same,anti-proliferative effect after microinjection,two-cell stage ZF eggs; 1 pmol/embryo microinjected,formation of a blastocoel-like cavity in the blastoderm of late blastulae and early gastrulae and disrupted further gastrulation
same,anti-proliferative effect after microinjection,two-cell stage ZF eggs; 40 pmols/cell microinjected,slowed down cell division and resulted in deterioration of the cell localization pattern and developmental block
same,pIC50,[2],4.60
same,pIC50,[3],5.02
same,pIC50,[4],4.45
same,mitotic spindle organization,[5],aberrant monopolar mitotic structures
